Test results as given in PubChem BioAssay AID248 (DTP/NCI, 2004).
Values joined by “and” are separate entries in the source; they are usually repeats but may differ in a detail not shown here. Identical values can stand only once. Inconclusive results and toxic doses are left out. Cut-off read from the data, not from the text of the source: active = T/C of 150% or more; inactive = T/C below 125%.

Test system: L1210 leukemia ip in BDF1 mice, survival T/C
Test: NCI In Vivo Anticancer Drug Screen. Data for tumor model L1210 Leukemia (intraperitoneal) in B6D2F1 (BDF1) mice
Details: endpoint: mean survival time, higher = longer survival
Procedure, shortened: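 Each compound was tested against a transplantable tumor grown in mice. The endpoint was survival, with treated animals benchmarked against vehicle controls as a simple ratio.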

[1] = dose: 50.0 mg/kg/injection, schedule: Q01DX001 (ip), vehicle: saline
[2] = dose: 100.0 mg/kg/injection, schedule: Q01DX001 (ip), vehicle: saline
[3] = dose: 200.0 mg/kg/injection, schedule: Q01DX001 (ip), vehicle: saline
[4] = dose: 400.0 mg/kg/injection, schedule: Q01DX001 (ip), vehicle: saline
[5] = dose: 100.0 mg/kg/injection, schedule: Q01DX009 (ip), vehicle: Klucel (hydroxypropylcellulose) (HPC)
[6] = dose: 200.0 mg/kg/injection, schedule: Q01DX009 (ip), vehicle: Klucel (hydroxypropylcellulose) (HPC)
[7] = dose: 400.0 mg/kg/injection, schedule: Q01DX009 (ip), vehicle: Klucel (hydroxypropylcellulose) (HPC)
[8] = dose: 100.0 mg/kg/injection, schedule: Q04DX003 (ip), vehicle: Klucel (hydroxypropylcellulose) (HPC)
[9] = dose: 200.0 mg/kg/injection, schedule: Q04DX003 (ip), vehicle: Klucel (hydroxypropylcellulose) (HPC)
[10] = dose: 400.0 mg/kg/injection, schedule: Q04DX003 (ip), vehicle: Klucel (hydroxypropylcellulose) (HPC)
[11] = dose: 50.0 mg/kg/injection, schedule: Q01DX009 (ip), vehicle: saline with Tween-80
[12] = dose: 100.0 mg/kg/injection, schedule: Q01DX009 (ip), vehicle: saline with Tween-80
[13] = dose: 200.0 mg/kg/injection, schedule: Q01DX009 (ip), vehicle: saline with Tween-80
[14] = dose: 100.0 mg/kg/injection, schedule: Q01DX001 (ip), vehicle: saline with Tween-80
[15] = dose: 200.0 mg/kg/injection, schedule: Q01DX001 (ip), vehicle: saline with Tween-80
[16] = dose: 400.0 mg/kg/injection, schedule: Q01DX001 (ip), vehicle: saline with Tween-80

Measured: T/C

O=C(O)c1ccc(C2CC2)cc1
inactive: dose: 100.0 mg/kg/injection, schedule: Q01DX001 (ip), vehicle: other 103 % of control | dose: 100.0 mg/kg/injection, schedule: Q04DX003 (ip), vehicle: other 103 % of control | dose: 200.0 mg/kg/injection, schedule: Q01DX001 (ip), vehicle: other 108 % of control | dose: 200.0 mg/kg/injection, schedule: Q04DX003 (ip), vehicle: other 111 % of control | dose: 400.0 mg/kg/injection, schedule: Q01DX001 (ip), vehicle: other 95 % of control | dose: 400.0 mg/kg/injection, schedule: Q04DX003 (ip), vehicle: other 103 % of control

OCCCCCCCCCCO
inactive: dose: 100.0 mg/kg/injection, schedule: Q01DX009 (ip), vehicle: carboxymethylcellulose (CMC) 104 % of control | dose: 200.0 mg/kg/injection, schedule: Q01DX009 (ip), vehicle: carboxymethylcellulose (CMC) 106 % of control | dose: 400.0 mg/kg/injection, schedule: Q01DX009 (ip), vehicle: carboxymethylcellulose (CMC) 98 % of control

CCN(CC)c1ccc(/C=N\NC(=O)CCCC(=O)N/N=C/c2ccc(N(CC)CC)cc2)cc1
inactive: [1] 102 % of control | [2] 100 % of control | [3] 96 % of control | [4] 100 % of control

FC(F)(F)C(=Cc1nc2ccccc2s1)C(F)(F)F
inactive: dose: 12.5 mg/kg/injection, schedule: Q01DX009 (ip), vehicle: Klucel (hydroxypropylcellulose) (HPC) 91 % of control | dose: 12.5 mg/kg/injection, schedule: Q04DX003 (ip), vehicle: Klucel (hydroxypropylcellulose) (HPC) 93 % of control | dose: 25.0 mg/kg/injection, schedule: Q01DX009 (ip), vehicle: Klucel (hydroxypropylcellulose) (HPC) 98 % of control | dose: 25.0 mg/kg/injection, schedule: Q04DX003 (ip), vehicle: Klucel (hydroxypropylcellulose) (HPC) 97 % of control | dose: 50.0 mg/kg/injection, schedule: Q04DX003 (ip), vehicle: Klucel (hydroxypropylcellulose) (HPC) 95 % of control

c1ccc(CNCC2c3[nH]c4ccccc4c3CN2C2CCCCC2)cc1 (stereo not drawn)
inactive: dose: 75.0 mg/kg/injection, schedule: Q01DX001 (ip), vehicle: carboxymethylcellulose (CMC) 102 % of control | dose: 150.0 mg/kg/injection, schedule: Q01DX001 (ip), vehicle: carboxymethylcellulose (CMC) 90 % of control | dose: 300.0 mg/kg/injection, schedule: Q01DX001 (ip), vehicle: carboxymethylcellulose (CMC) 91 % of control

Clc1ccc(/C=N/N=C/c2ccc(Cl)cc2Cl)c(Cl)c1
inactive: dose: 100.0 mg/kg/injection, schedule: Q04DX002 (ip), vehicle: Klucel (hydroxypropylcellulose) (HPC) 98 % of control | dose: 200.0 mg/kg/injection, schedule: Q04DX002 (ip), vehicle: Klucel (hydroxypropylcellulose) (HPC) 98 % of control | dose: 400.0 mg/kg/injection, schedule: Q04DX002 (ip), vehicle: Klucel (hydroxypropylcellulose) (HPC) 102 % of control

CSc1nc(O)cc(=O)n1C
inactive: dose: 100.0 mg/kg/injection, schedule: Q01DX Z (ip), vehicle: methylcellulose (MC) 95 % of control | dose: 200.0 mg/kg/injection, schedule: Q01DX Z (ip), vehicle: methylcellulose (MC) 101 % of control

CC(=O)OC1C=CN(C(C)=O)C(SC23CC4CC(CC(C4)C2)C3)C1O (stereo not drawn)
inactive: [5] 97 % of control | [6] 97 % of control | [7] 95 % of control

ClC1=C(Cl)C2(Cl)C(C1Cl)C1(Cl)C(Cl)=C(Cl)C2(Cl)C1Cl (stereo not drawn)
inactive: [5] 97 % of control | [8] 102 % of control | [6] 97 % of control | [9] 104 % of control | [7] 97 % of control | [10] 93 % of control

C=Cc1cc[n+](Cc2ccc(C[n+]3ccc(C=C)cc3)cc2)cc1
inactive: dose: 100.0 mg/kg/injection, schedule: Q01DX001 (ip), vehicle: carboxymethylcellulose (CMC) 91 % of control | dose: 200.0 mg/kg/injection, schedule: Q01DX001 (ip), vehicle: carboxymethylcellulose (CMC) 91 % of control | dose: 400.0 mg/kg/injection, schedule: Q01DX001 (ip), vehicle: carboxymethylcellulose (CMC) 87 % of control

CCCCCCN(C)Cc1ccc(OCCOc2ccc(CN(C)CCCCCC)cc2)cc1
inactive: [1] 100 % of control

Cc1ccc(NC(=O)CC#N)c(C)c1
inactive: [11] 95 % of control | [12] 113 % of control | dose: 100.0 mg/kg/injection, schedule: Q04DX002 (ip), vehicle: saline with Tween-80 101 % of control | [13] 113 % of control | dose: 200.0 mg/kg/injection, schedule: Q04DX002 (ip), vehicle: saline with Tween-80 101 % of control

CC(C(=O)c1cccs1)C(O)(C(F)(F)F)C(F)(F)F (stereo not drawn)
inactive: [8] 95 % of control | [9] 95 % of control | [10] 103 % of control

CCOc1ccc(NC(=S)NC(=O)C(C)Oc2ccccc2)cc1 (stereo not drawn)
inactive: [11] 102 % of control | dose: 800.0 mg/kg/injection, schedule: Q04DX002 (ip), vehicle: saline with Tween-80 96 % of control and 101 % of control

O=S(=O)(c1ccccc1)c1cccs1
inactive: [11] 101 % of control | [12] 96 % of control | [13] 105 % of control

O=C1Nc2ccccc2C2Cc3c([nH]c4ccccc34)CC12 (stereo not drawn)
inactive: [1] 115 % of control | [2] 104 % of control | [3] 104 % of control | [4] 89 % of control

NC(=O)c1ccccc1Cl
inactive: [14] 104 % of control | dose: 100.0 mg/kg/injection, schedule: Q01DX009 (ip), vehicle: saline sonified 105 % of control | [15] 102 % of control | dose: 200.0 mg/kg/injection, schedule: Q01DX009 (ip), vehicle: saline sonified 89 % of control | [16] 101 % of control | dose: 400.0 mg/kg/injection, schedule: Q01DX009 (ip), vehicle: saline sonified 100 % of control

C(CCC1CCCC1)=C(CCCC1CCCC1)CCCC1CCCC1
inactive: [14] 100 % of control | [15] 94 % of control | [16] 91 % of control

O=C1C=C2CCCC(=O)C2(Cc2ccccc2)CC1 (stereo not drawn)
inactive: dose: 100.0 mg/kg/injection, schedule: Q01DX009 (ip), vehicle: alcohol 103 % of control | dose: 200.0 mg/kg/injection, schedule: Q01DX009 (ip), vehicle: alcohol 92 % of control | dose: 400.0 mg/kg/injection, schedule: Q01DX009 (ip), vehicle: alcohol 96 % of control
